Data from patent publication US6946480B2, “Glutaminyl based DPIV inhibitors” (priority 2002, dated 2005).

Legend:
plasma DPIV activity = target: T1, plasma DPIV activity (Rattus norvegicus, UniProt P14740); assay: Plasma DPIV inhibiting activity after intravasal and oral administration to Wistar rats; format: in vivo; settings: 100 mg/kg b.w. vs. placebo, oral and intra-vasal administration
T1 construct: The assay mixture for determination of plasma DPIV activity consisted of 80 μl reagent and 20 μl plasma sample; from tissue; host or cells: plasma of male Wistar rats
T1 sequence (P14740 37-767 limits assumed): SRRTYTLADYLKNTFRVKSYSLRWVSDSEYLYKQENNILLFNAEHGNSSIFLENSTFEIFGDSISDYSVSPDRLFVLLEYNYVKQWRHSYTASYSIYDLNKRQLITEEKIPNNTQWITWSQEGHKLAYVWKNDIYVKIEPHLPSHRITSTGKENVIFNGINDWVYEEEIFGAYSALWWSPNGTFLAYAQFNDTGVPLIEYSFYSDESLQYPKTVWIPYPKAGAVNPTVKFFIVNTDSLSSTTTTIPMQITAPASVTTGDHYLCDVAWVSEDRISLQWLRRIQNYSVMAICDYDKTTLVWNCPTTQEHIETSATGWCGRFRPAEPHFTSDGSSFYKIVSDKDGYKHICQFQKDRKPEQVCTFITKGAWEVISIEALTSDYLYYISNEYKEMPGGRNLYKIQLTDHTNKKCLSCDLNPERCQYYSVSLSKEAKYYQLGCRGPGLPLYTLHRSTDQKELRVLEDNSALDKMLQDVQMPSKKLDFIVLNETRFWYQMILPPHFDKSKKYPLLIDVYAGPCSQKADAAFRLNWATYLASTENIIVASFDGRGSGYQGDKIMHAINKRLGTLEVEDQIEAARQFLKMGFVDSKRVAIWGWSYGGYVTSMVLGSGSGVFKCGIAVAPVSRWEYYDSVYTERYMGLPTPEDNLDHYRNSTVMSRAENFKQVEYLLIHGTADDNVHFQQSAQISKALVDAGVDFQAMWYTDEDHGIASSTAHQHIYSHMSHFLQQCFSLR
Description: Male Wistar rats (Shoe: Wist(Sho)) with a body weight ranging between 250 and 350 g were purchased from Tierzucht Schönwalde (Schönwalde, Germany).
Animals were single-caged under conventional conditions with controlled temperature (22±2° C.) on a 12/12 hours light/dark cycle (light on at 06:00 AM). Standard pelleted chow (ssniff® Soest, Germany) and tap water acidified with HCl were allowed ad libitum.
After ≧one week of adaptation at the housing conditions, catheters were implanted into the carotid artery of Wistar rats under general anaesthesia (i.p. injection of 0.25 ml/kg b.w. Rompun® [2%], BayerVital, Germany and 0.5 ml/kg b.w. Ketamin 10, Atarost GmbH & Co., Twistringen, Germany). The animals were allowed to recover for one week. The catheters were flushed with heparin-saline (100 IU/ml) three times per week. In case of catheter dysfunction, a second catheter was inserted into the contra-lateral carotid artery of the respective rat. After one week of recovery from surgery, this animal was reintegrated into the study. In case of dysfunction of the second catheter, the animal was withdrawn from the study. […]
Statistical evaluations and graphics were performed with PRISM® 3.02 (GraphPad Software, Inc.). All parameters were analysed in a descriptive manner including mean and SD.

[1] = target: T2, Dipeptidyl Peptidase I (DP I, Cathepsin C) (Rattus norvegicus, UniProt P80067); assay: Cross reacting enzymes - dipeptidyl peptidase I; format: biochemical; settings: concentration range 1*10^−5 M-1*10^−7 M
T2 construct: purchased Qiagen GmbH, Hilden, Germany
T2 sequence (P80067 25-134 limits assumed): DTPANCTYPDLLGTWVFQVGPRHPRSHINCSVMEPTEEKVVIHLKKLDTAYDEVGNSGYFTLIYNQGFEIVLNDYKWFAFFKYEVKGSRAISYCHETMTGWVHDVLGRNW
T2 sequence (P80067 230-393 limits assumed): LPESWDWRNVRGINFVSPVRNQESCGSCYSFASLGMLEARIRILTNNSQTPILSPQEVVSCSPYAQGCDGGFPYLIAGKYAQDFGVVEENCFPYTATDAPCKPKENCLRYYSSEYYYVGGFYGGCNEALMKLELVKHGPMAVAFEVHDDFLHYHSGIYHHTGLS
T2 sequence (P80067 394-462 limits assumed): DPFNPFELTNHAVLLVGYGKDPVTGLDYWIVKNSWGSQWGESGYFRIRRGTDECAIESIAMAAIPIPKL
Description: Glutaminyl pyrrolidine or glutaminyl thiazolidine were tested for their cross reacting potency against dipeptidyl peptidase I, prolyl oligopeptidase and prolidase.
DP I or cathepsin C is a lysosomal cysteine protease which cleaves off dipeptides from the N-terminus of their substrates (Gutman, H. R. & Fruton, J. S., 1948, J. Biol: Chem., 174, 851-858) . It is classified as a cysteine protease.
The enzyme used was purchased from Qiagen (Qiagen GmbH, Hilden, Germany). In order to get a fully active enzyme, the enzyme was diluted 1000fold in MES buffer pH5,6 (40 mM MES, 4 mM DTT, 4 mM KCl, 2 mM EDTA, 0.015% Brij) and pre-incubated for 30 min at 30° C.
50 μl glutaminyl pyrrolidine or glutaminyl thiazolidine in a concentration range of 1*10^−5 M-1*10^−7 M were admixed with 110 μl buffer-enzyme-mixture. The assay mixture was pre-incubated at 30° C. for 15 min After pre-incubation, 100 μl histidylseryl-β-nitroaniline (2*10^−5 M) were added and measurement of yellow color development due to β-nitroaniline release was performed at 30° C. and […] for 10 min, using a plate reader (HTS7000 plus, Applied Biosystems, Weiterstadt, Germany).
The IC50-values were calculated using Graphit 4.0.15 (Erithacus Software, Ltd., UK).

inhibition of plasma DPIV activity in vivo (plasma DPIV activity): inhibited plasma DPIV activity
inhibition of DP I enzyme activity [1]: no inhibition
SMILES: NC(=O)CC[C@H](N)C(=O)N1CCCC1 [glutaminyl pyrrolidine]
